Laboratory results: publication PMC6902473 (Clinical Epigenetics, 2019)

Columns and labels:
[1] = human, in vivo
Description: The study design was a single-arm, multi-center phase I/II clinical trial with two phases: Phase I was an intra-patient dose (de)escalation period until an individual maximum tolerable dose (MTD) was reached. […] A DLT was defined as grade 3 or 4 toxicity according to a selection of Common Toxicity Criteria for Adverse Events (CTCAE) (V4.0) and judged by the investigator as definitely, probably, or possibly related to the study drug. The starting dose was 180 mg/m^2/day and the minimum dose was 30 mg/m^2/day. A dosing nomogram was used to minimize interpatient dosing variability.
De-escalation was done in steps of 50 mg/m^2/day until a minimal dose of 30 mg/m^2/day was reached. […] Upon reaching her or his individual MTD, a patient seamlessly entered phase II of the protocol.
During phase II, disease assessments were performed every 3 months, starting 3 months after reaching individual MTD. If treatment was discontinued for any reason during phase II, treatment was prolonged thereafter to provide a minimal treatment window of 3 months before measuring response. Patients without progressive disease continued the therapy at their individual MTD until disease progression (but no longer than 9 months). In case of clinical benefit, treatment could be continued on an individual basis at the discretion of the investigator. Toxicities were graded according CTCAE V4.0.
The primary end point was to determine a safe dose recommendation (SDR), defined as the highest dose with a DLT in no more than 1/50 patients.
The DLT associated with the starting dose was to be continuously monitored using a Bayesian criterion with a non-informative prior and a binomial-beta model for the DLT rate r. […] This decision process was repeated, i.e., it was applied to the lowered starting dose in an analogous way.
All adverse events were summarized, using MedDRA preferred terms.

[2] = daily and continuous dosing; cited from earlier work

In the case of `O=C(CCCCCCC(=O)Nc1ccccc1)NO` [vorinostat], the “Patients with all causalities AE: AE” value [1] is reported as 49 (98) No. (%), the “Patients with all causalities AE: AE leading to dose reduction or temporary treatment discontinuation” value [1] is reported as 38 (76) No. (%) and the “Patients with all causalities AE: AE leading to treatment discontinuation” value [1] is reported as 9 (18) No. (%). The “Patients with all causalities AE: SAEs” value [1] was 19 (38) No. (%), the “Patients with all causalities AE: Severe AEs (CTCAE grade 3/4)” value [1] was 48 (96) No. (%) and the “Patients with treatment related AE: Alanine aminotransferase increased” value [1] was 2 (4.0) Patients (%). For the same compound, the “Patients with treatment related AE: Alopecia” value [1] was 9 (18.0) Patients (%), the “Patients with treatment related AE: Anemia” value [1] was 8 (16.0) Patients (%) and the “Patients with treatment related AE: Blood creatinine increased” value [1] was 5 (10.0) Patients (%). For the same compound, the “Patients with treatment related AE: Blood lactate dehydrogenase increased” value [1] was 4 (8.0) Patients (%), the “Patients with treatment related AE: Constipation” value [1] was 4 (8.0) Patients (%) and the “Patients with treatment related AE: Cough” value [1] was 3 (6.0) Patients (%). For the same compound, the “Patients with treatment related AE: Decreased appetite” value [1] was 5 (10.0) Patients (%), the “Patients with treatment related AE: Diarrhea” value [1] was 11 (22.0) Patients (%) and the “Patients with treatment related AE: Dry skin” value [1] was 4 (8.0) Patients (%). For the same compound, the “Patients with treatment related AE: Fatigue” value [1] was 9 (18.0) Patients (%), the “Patients with treatment related AE: Headache” value [1] was 5 (10.0) Patients (%) and the “Patients with treatment related AE: Nausea” value [1] was 11 (22.0) Patients (%). For the same compound, the “Patients with treatment related AE: Platelet count decreased” value [1] was 6 (12.0) Patients (%), the “Patients with treatment related AE: Pyrexia” value [1] was 3 (6.0) Patients (%) and the “Patients with treatment related AE: Vomiting” value [1] was 8 (16.0) Patients (%). For the same compound, the “Patients with treatment related AE: Weight decreased” value [1] was 5 (10.0) Patients (%), the “Patients with treatment related AE: White blood cell decreased” value [1] was 1 (2.0) Patients (%) and the “Total of patients with treatment related AE: Alanine aminotransferase increased” value [1] was 4 (8.0, 2.2 - 19.2) Patients (%, 95% CIs). The “Total of patients with treatment related AE: Alopecia” value [1] was 9 (18.0, 8.6 - 31.4) Patients (%, 95% CIs), the “Total of patients with treatment related AE: Blood creatinine increased” value [1] was 5 (10.0, 3.3 - 21.8) Patients (%, 95% CIs) and the “Total of patients with treatment related AE: Blood lactate dehydrogenase increased” value [1] was 4 (8.0, 2.2 - 19.2) Patients (%, 95% CIs). The “Total of patients with treatment related AE: Constipation” value [1] was 4 (8.0, 2.2 - 19.2) Patients (%, 95% CIs), the “Total of patients with treatment related AE: Decreased appetite” value [1] was 7 (14.0, 5.8 - 26.7) Patients (%, 95% CIs) and the “Total of patients with treatment related AE: Headache” value [1] was 6 (12.0, 4.5 - 24.3) Patients (%, 95% CIs). The “Total of patients with treatment related AE: Weight decreased” value [1] was 8 (16.0, 7.2 - 29.1) Patients (%, 95% CIs), the “Total of patients with treatment related AE: White blood cell decreased” value [1] was 9 (18.0, 8.6 - 31.4 ) Patients (%, 95% CIs) and the “Total sum of DLTs: Abdominal pain” value [1] was 1. The “Total sum of DLTs: Abdominal pain upper” value [1] was 2, the “Total sum of DLTs: Aggression” value [1] was 1 and the “Total sum of DLTs: Alanine aminotransferase increased” value [1] was 3. The “Total sum of DLTs: Anemia” value [1] was 2, the “Total sum of DLTs: Apathy” value [1] was 1 and the “Total sum of DLTs: Decreased appetite” value [1] was 3. For the same compound, the “Total sum of DLTs: Fatigue” value [1] was 7, the “Total sum of DLTs: Febrile infection” value [1] was 2 and the “Total sum of DLTs: Hypermagnesemia” value [1] was 3. For the same compound, the “Total sum of DLTs: Hypokalemia” value [1] was 1, the “Total sum of DLTs: Loss of personal independence in daily activities” value [1] was 1 and the “Total sum of DLTs: Vomiting” value [1] was 2. For the same compound, the “Total sum of DLTs: Weight decreased” value [1] was 2, the “Total sum of DLTs: White blood cell decreased” value [1] was 11 and the “pediatric recommended phase 2 dose” value [2] was 230 mg/m^2/day.
